Tests used:
Akt1 = biological target: T1, Akt1 (Homo sapiens, UniProt P31749); test: Akt activation assay (PDK1-mediated activation, LANCE Ultra crosstide TR-FRET), Akt1; type: biochemical; conditions: read-out: Biological Assay 1 IC50 (nM) Akt1
T1 construct: unspecified tag, removed (detagged) (cleaved yes); purchased SignalChem and Proteros (Akt1); Merck Millipore (PDK1) 14-452 (PDK1); none given for Akt1
In short: (§1)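 Human Akt1, Akt2 or Akt3 (SignalChem: 5, 15, 3 nM; Proteros: 5 nM each) was preincubated with compound, then activated by 5 nM PDK1 on PtdIns(3,4,5)P3/DOPS/DOPC vesicles with 100 µM ATP and 100 nM ULight-crosstide (HEPES pH 7.5, 1% DMSO) for 30 min. Product was detected by Eu-anti-phospho-crosstide TR-FRET (665/615 nm), with IC50 from a 4-parameter fit.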

Akt2 = biological target: T2, Akt2 (Homo sapiens, UniProt P31751); test: Akt activation assay (PDK1-mediated activation, LANCE Ultra crosstide TR-FRET), Akt2; type: biochemical; conditions: read-out: Biological Assay 1 IC50 (nM) Akt2
T2 construct: unspecified tag, removed (detagged) (cleaved yes); purchased SignalChem and Proteros (Akt2); Merck Millipore (PDK1) 14-452 (PDK1); none given for Akt2
T2 sequence (P31751 whole entry): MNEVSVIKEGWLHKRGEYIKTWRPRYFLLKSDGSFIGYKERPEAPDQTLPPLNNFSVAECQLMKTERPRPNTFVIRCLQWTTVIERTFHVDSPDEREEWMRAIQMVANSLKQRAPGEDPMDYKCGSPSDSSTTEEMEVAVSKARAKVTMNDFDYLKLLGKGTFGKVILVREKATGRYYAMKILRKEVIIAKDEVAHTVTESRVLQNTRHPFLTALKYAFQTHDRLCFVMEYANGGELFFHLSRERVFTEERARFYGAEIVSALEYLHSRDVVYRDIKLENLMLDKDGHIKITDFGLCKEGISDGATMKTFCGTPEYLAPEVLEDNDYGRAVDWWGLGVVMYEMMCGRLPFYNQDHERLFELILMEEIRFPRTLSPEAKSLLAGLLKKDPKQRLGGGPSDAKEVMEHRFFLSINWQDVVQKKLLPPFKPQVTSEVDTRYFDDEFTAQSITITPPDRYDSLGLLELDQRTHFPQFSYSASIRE
In short: as §1

p-Akt1 in LNCaP cells = biological target: T3, p-Akt1 in LNCaP cells (Homo sapiens, UniProt P31749); test: Phospho-Akt cellular SureFire assay, p-Akt1 in LNCaP cells; type: cell-based; conditions: read-out: Biological Assay 2 IC50 (nM) Akt1 LNCaP
T3 construct: SureFire assays to detect cellular p-Akt1, p-Akt2 and p-Akt3 levels in WM115 cells (Akt2/3) and LNCaP cells (Akt1); endogenous in cells; host or cells: LNCaP (ECACC 89110211)
T3 sequence (P31749 whole entry): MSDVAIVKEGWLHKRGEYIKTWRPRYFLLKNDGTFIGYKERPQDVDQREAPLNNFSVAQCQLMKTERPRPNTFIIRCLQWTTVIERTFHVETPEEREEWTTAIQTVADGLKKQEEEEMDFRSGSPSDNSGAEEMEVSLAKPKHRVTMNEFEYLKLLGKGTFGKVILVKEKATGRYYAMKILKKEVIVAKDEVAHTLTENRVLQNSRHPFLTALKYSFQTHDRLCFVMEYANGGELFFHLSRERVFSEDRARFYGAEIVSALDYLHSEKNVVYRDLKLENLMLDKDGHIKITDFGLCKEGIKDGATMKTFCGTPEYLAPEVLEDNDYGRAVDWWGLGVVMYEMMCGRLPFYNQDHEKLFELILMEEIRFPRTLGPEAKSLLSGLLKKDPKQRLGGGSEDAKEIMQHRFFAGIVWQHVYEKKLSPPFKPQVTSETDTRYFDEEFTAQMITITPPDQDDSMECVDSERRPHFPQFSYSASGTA
In short: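 LNCaP cells, 5×10^4/well, seeded overnight, switched to 0.1% FBS medium without insulin stimulation, then compound for 15 min at 37 °C (0.3% DMSO). Lysate p-Akt1 (pThr308) by AlphaScreen SureFire, two 2 h incubations at room temperature; IC50 by 4-parameter fit.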

p-Akt2 in WM115 cells = biological target: T4, p-Akt2 in WM115 cells (Homo sapiens, UniProt P31751); test: Phospho-Akt cellular SureFire assay, p-Akt2 in WM115 cells; type: cell-based; conditions: insulin stimulated, read-out: Biological Assay 2 IC50 (nM) Akt2 WM115
T4 construct: SureFire assays to detect cellular p-Akt1, p-Akt2 and p-Akt3 levels in WM115 cells (Akt2/3) and LNCaP cells (Akt1); endogenous in cells; host or cells: WM115 (ECACC 91061232), insulin-stimulated
T4 sequence (P31751 whole entry): as the sequence (P31751 whole entry) above
In short: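 WM115 cells in 0.1% FBS medium stimulated 10 min with 100 nM insulin, then exposed to compound for 15 min at 37° C (0.3% DMSO final). Lysates assayed by AlphaScreen with anti-(pThr308)Akt and isoform-specific total Akt2 antibodies; IC50 from 4-parameter fit.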

p-Akt3 in WM115 cells = biological target: T5, p-Akt3 in WM115 cells (Homo sapiens, UniProt Q9Y243); test: Phospho-Akt cellular SureFire assay, p-Akt3 in WM115 cells; type: cell-based; conditions: insulin stimulated, read-out: Biological Assay 2 IC50 (nM) Akt3 WM115
T5 construct: SureFire assays to detect cellular p-Akt1, p-Akt2 and p-Akt3 levels in WM115 cells (Akt2/3) and LNCaP cells (Akt1); endogenous in cells; host or cells: WM115 (ECACC 91061232), insulin-stimulated
T5 sequence (Q9Y243 whole entry): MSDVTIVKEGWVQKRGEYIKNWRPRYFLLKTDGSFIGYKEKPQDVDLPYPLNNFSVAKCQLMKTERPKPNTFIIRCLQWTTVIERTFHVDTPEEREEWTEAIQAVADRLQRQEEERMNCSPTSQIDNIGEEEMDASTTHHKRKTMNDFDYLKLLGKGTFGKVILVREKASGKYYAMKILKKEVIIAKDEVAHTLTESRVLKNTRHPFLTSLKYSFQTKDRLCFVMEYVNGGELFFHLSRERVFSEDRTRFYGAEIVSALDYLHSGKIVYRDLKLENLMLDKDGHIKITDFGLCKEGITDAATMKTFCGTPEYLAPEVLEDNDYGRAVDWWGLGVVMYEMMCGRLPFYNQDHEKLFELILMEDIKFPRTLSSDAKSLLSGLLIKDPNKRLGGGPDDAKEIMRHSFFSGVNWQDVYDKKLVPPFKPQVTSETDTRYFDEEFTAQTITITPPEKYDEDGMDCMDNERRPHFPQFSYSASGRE
In short: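 WM115 cells were serum-reduced to 0.1% FBS, stimulated with 100 nM insulin for 10 min, then exposed to compound (0.3% DMSO) for 15 min at 37 °C. Lysates were assayed for Thr308-phosphorylated Akt3 by AlphaScreen SureFire using an isoform-specific total Akt3 capture antibody. IC50 was derived from a 4-parameter fit.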

Akt3 = biological target: T6, Akt3 (Homo sapiens, UniProt Q9Y243); test: Akt activation assay (PDK1-mediated activation, LANCE Ultra crosstide TR-FRET), Akt3; type: biochemical; conditions: read-out: Biological Assay 1 IC50 (nM) Akt3
T6 construct: unspecified tag, removed (detagged) (cleaved yes); purchased SignalChem and Proteros (Akt3); Merck Millipore (PDK1) 14-452 (PDK1); none given for Akt3
T6 sequence (Q9Y243 whole entry): as above
In short: as §1

T1 sequence (P31749 whole entry): as the sequence (P31749 whole entry) above

NC1(c2ccc(-c3nnc(NC(=O)C[C@H]4CC[C@H](N5CCOC5=O)CC4)cc3-c3ccccc3)cc2)CC(F)(F)C1 [Example 61, N-(6-(4-(1-amino-3,3-difluorocyclobutyl)phenyl)-5-phenylpyridazin-3-yl)-2-(trans-4-(2-oxooxazolidin-3-yl)cyclohexyl)acetamide]
IC50 (Akt1): > 22800 nM | IC50 (Akt2): 200 nM | IC50 (p-Akt1 in LNCaP cells): > 30000 nM | IC50 (p-Akt2 in WM115 cells): > 10500 nM | IC50 (p-Akt3 in WM115 cells): 66 nM | IC50 (Akt3): 17 nM

CC(=O)N(C)[C@H]1CC[C@H](CC(=O)Nc2cc(-c3ccccc3)c(-c3ccc(C(C)(C)N)cc3)cn2)CC1 [Example 63, N-(5-(4-(2-aminopropan-2-yl)phenyl)-4-phenylpyridin-2-yl)-2-(trans-4-(N-methylacetamido)cyclohexyl)acetamide]
IC50 (Akt1): > 30000 nM | IC50 (Akt2): > 30000 nM | IC50 (p-Akt1 in LNCaP cells): > 30000 nM | IC50 (p-Akt2 in WM115 cells): > 28000 nM | IC50 (p-Akt3 in WM115 cells): 360 nM | IC50 (Akt3): 300 nM

CC(C)(N)c1ccc(-c2cnc(NC(=O)C[C@H]3CC[C@H](N4CCOC4=O)CC3)cc2-c2ccccc2)cc1 [Example 64, N-(5-(4-(2-aminopropan-2-yl)phenyl)-4-phenylpyridin-2-yl)-2-(trans-4-(2-oxooxazolidin-3-yl)cyclohexyl)acetamide]
IC50 (Akt1): > 30000 nM | IC50 (Akt2): 2800 nM | IC50 (p-Akt1 in LNCaP cells): > 30000 nM | IC50 (p-Akt2 in WM115 cells): 6600 nM | IC50 (p-Akt3 in WM115 cells): 210 nM | IC50 (Akt3): 180 nM

CC(C)(N)c1ccc(-c2nnc(NC(=O)C[C@H]3CC[C@H](N4CCOC4=O)CC3)cc2-c2ccccc2)cc1 [Example 65, N-(6-(4-(2-aminopropan-2-yl)phenyl)-5-phenylpyridazin-3-yl)-2-(trans-4-(2-oxooxazolidin-3-yl)cyclohexyl)acetamide]
IC50 (Akt1): > 30000 nM | IC50 (Akt2): 4100 nM | IC50 (p-Akt1 in LNCaP cells): > 30000 nM | IC50 (p-Akt2 in WM115 cells): 6500 nM | IC50 (p-Akt3 in WM115 cells): 190 nM | IC50 (Akt3): 61 nM

NC1(c2ccc(-c3nnc(NC(=O)C[C@H]4CC[C@H](N5CCOC5=O)CC4)cc3-c3ccccc3)cc2)CCC1 [Example 66, N-(6-(4-(1-aminocyclobutyl)phenyl)-5-phenylpyridazin-3-yl)-2-(trans-4-(2-oxooxazolidin-3-yl)cyclohexyl)acetamide]
IC50 (Akt1): 7200 nM | IC50 (Akt2): 150 nM | IC50 (p-Akt1 in LNCaP cells): 9800 nM | IC50 (p-Akt2 in WM115 cells): 940 nM | IC50 (p-Akt3 in WM115 cells): 48 nM | IC50 (Akt3): 5 nM

COC(=O)N(C)[C@H]1CC[C@H](CC(=O)Nc2cc(-c3ccccc3)c(-c3ccc([C@]4(N)C[C@](C)(O)C4)cc3)cn2)CC1 [Example 67, Methyl (trans-4-(2-((5-(4-(trans-1-amino-3-hydroxy-3-methylcyclobutyl)phenyl)-4-phenylpyridin-2-yl)amino)-2-oxoethyl)cyclohexyl)(methyl)carbamate]
IC50 (Akt1): > 6500 nM | IC50 (Akt2): 180 nM | IC50 (p-Akt1 in LNCaP cells): > 9300 nM | IC50 (p-Akt2 in WM115 cells): 1500 nM | IC50 (p-Akt3 in WM115 cells): 37 nM | IC50 (Akt3): 8 nM

CC(C)(N)c1ccc(-c2nnc(NC(=O)C[C@H]3CC[C@H](N4CCOC4=O)CC3)nc2-c2ccccc2)cc1 [Example 69, N-(6-(4-(2-aminopropan-2-yl)phenyl)-5-phenyl-1,2,4-triazin-3-yl)-2-(trans-4-(2-oxooxazolidin-3-yl)cyclohexyl)acetamide]
IC50 (Akt1): > 30000 nM | IC50 (Akt2): > 30000 nM | IC50 (p-Akt1 in LNCaP cells): > 30000 nM | IC50 (p-Akt2 in WM115 cells): > 30000 nM | IC50 (p-Akt3 in WM115 cells): 480 nM | IC50 (Akt3): 1800 nM

NC1(c2ccc(-c3cnc(NC(=O)C[C@H]4CC[C@H](N5CCOC5=O)CC4)cc3-c3ccsc3)cc2)CCC1 [Example 70, N-(5-(4-(1-aminocyclobutyl)phenyl)-4-(thiophen-3-yl)pyridin-2-yl)-2-(trans-4-(2-oxooxazolidin-3-yl)cyclohexyl)acetamide]
IC50 (Akt1): > 30000 nM | IC50 (Akt2): 830 nM | IC50 (p-Akt1 in LNCaP cells): > 30000 nM | IC50 (p-Akt2 in WM115 cells): 910 nM | IC50 (p-Akt3 in WM115 cells): 39 nM | IC50 (Akt3): 42 nM
